Assays:
GNPAT_C54 = target: T1, GNPAT_C54 (Homo sapiens, UniProt O15228); experiment: IA-DTB cysteine engagement; type: binding; conditions: 22Rv1 cells, relative to DMSO; for % engagement GNPAT_54: 5 μM probe, 1 h (FIG. 5B); for % engagement GNPAT_C54: 20 μM probe, 1 h
T1 construct: endogenous in cells; host or cells: 22Rv1
T1 sequence (O15228 1-680): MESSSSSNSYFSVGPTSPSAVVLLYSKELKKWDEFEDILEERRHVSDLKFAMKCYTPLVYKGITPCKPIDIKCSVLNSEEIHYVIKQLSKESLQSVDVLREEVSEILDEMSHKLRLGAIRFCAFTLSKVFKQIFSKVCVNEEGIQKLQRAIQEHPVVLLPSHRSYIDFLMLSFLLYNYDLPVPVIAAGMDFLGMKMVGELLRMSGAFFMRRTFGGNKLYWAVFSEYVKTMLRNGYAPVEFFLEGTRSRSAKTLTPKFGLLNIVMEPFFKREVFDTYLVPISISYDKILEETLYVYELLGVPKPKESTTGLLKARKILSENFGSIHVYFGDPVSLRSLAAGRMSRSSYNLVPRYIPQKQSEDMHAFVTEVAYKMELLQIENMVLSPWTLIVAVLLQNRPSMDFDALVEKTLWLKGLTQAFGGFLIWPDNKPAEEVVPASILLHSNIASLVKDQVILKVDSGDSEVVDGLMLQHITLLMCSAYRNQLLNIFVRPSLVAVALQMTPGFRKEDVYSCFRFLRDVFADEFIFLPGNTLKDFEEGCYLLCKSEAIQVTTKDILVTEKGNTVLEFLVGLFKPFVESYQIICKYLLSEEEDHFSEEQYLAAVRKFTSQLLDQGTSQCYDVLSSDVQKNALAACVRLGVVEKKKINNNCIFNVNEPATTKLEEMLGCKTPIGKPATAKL
How it was run: (§1)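 Cells were treated in situ with electrophilic probes, then lysed, and the lysates (2 mg/mL protein) were labeled with IA-DTB for 1 h at ambient temperature. After reduction, alkylation and trypsin digestion, labeled peptides were streptavidin-enriched, TMT-labeled and fractionated. Engagement ratios are probe vs DMSO reporter intensities, averaged across replicates.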

LRPPRC_C571 = target: T2, LRPPRC_C571 (Homo sapiens, UniProt P42704); experiment: IA-DTB cysteine engagement; type: binding; conditions: 22Rv1 cells, 20 μM probe, 1 h, relative to DMSO
T2 construct: endogenous in cells; host or cells: 22Rv1
How it was run: as §1

Row | SMILES | % engagement GNPAT_54 (GNPAT_C54) | % engagement LRPPRC_C571 (LRPPRC_C571) | % engagement GNPAT_C54 (GNPAT_C54)
1 | C=CC(=O)N1C[C@H](c2ccc(Br)cc2)[C@@H]1C(=O)Nc1cccc2cccnc12 [MY-1B, (2R,3S)-1-acryloyl-3-(4-bromophenyl)-N-(quinolin-8-yl)azetidine-2-carboxamide] | 73.17% | 7% | 91.5%
2 | C=CC(=O)N1C[C@@H](c2ccc(Br)cc2)[C@H]1C(=O)Nc1cccc2cccnc12 [MY-1A, (2S,3R)-1-acryloyl-3-(4-bromophenyl)-N-(quinolin-8-yl)azetidine-2-carboxamide] | – | 73.5% | 88.5%

Next, values leading:

Row | % engagement GNPAT_54 (GNPAT_C54) | % engagement LRPPRC_C571 (LRPPRC_C571) | % engagement GNPAT_C54 (GNPAT_C54) | SMILES
3 | 51.83% | – | – | CC#CC(=O)N1C[C@H](c2ccc(Br)cc2)[C@@H]1C(=O)Nc1cccc2cccnc12 [MY-45B, (2R,3S)-3-(4-bromophenyl)-1-(but-2-ynoyl)-N-(quinolin-8-yl)azetidine-2-carboxamide]
4 | – | 20% | 54.25% | C=CC(=O)N1C[C@H](c2ccc(Br)cc2)[C@H]1C(=O)Nc1cccc2cccnc12 [MY-3A, (2S,3S)-1-acryloyl-3-(4-bromophenyl)-N-(quinolin-8-yl)azetidine-2-carboxamide]
5 | – | 5% | 77.5% | C=CC(=O)N1C[C@H](c2ccc(Br)cc2)[C@H]1C(=O)Nc1cccc2cccnc12 [MY-3B, (2S,3S)-1-acryloyl-3-(4-bromophenyl)-N-(quinolin-8-yl)azetidine-2-carboxamide]
